The subject of data set [1] is target gene SOD1. As to the kind of experiment: Test Example 4: lipid conjugated siRNA sequences with different carbon chain lengths, SOD1 in mouse brain, lateral ventricle administration. The class given is in vivo, C57BL/6j mice. More on the design: Right hemisphere Mean value of inhibition rate / Left hemisphere Mean value of inhibition rate: unit not given here. The following applies: D5; for inhibitory activity compared with the vector-free siRNA sequence RX599002: left and right hemisphere, lateral ventricle 150 μg per mouse; for Left hemisphere Mean value of inhibition rate: left hemisphere (non-administration side); for Left hemisphere Mean value of inhibition rate / Right hemisphere Mean value of inhibition rate: lateral ventricle; for Left hemisphere Mean value of inhibition rate / activity compared with Uhd conjugated reference sequence RZ899093 and NM200 (C22) conjugated reference sequence RZ899076 / Right hemisphere Mean value of inhibition rate: 150 μg per mouse; for activity compared with Uhd conjugated reference sequence RZ899093 and NM200 (C22) conjugated reference sequence RZ899076: right hemisphere (administration side) and left hemisphere (non-administration side); for Right hemisphere Mean value of inhibition rate: right hemisphere (administration side). How it is done: 6-8 Week-old C57BL/6j mice were randomly grouped by body weight. Mice in each group were administered with siRNA by lateral ventricle administration, with an administration dose per mouse depending on a specific test. Taking Bregma in mouse brain as point 0 (origin), coordinates of right ventricle were found using the cerebral stereotaxic apparatus and position was marked on surface of skull (position of lateral ventricle was AP (anteroposterior, bregma anterior and posterior): −0.58 mm, ML (mediolateral, left and right of middle raphe): −1.2 mm, DV (dorsoventral, up and down cerebral dura mater plane): −2.2 mm). A dental electric drill was used to drill in the skull above a position of interest, and then medicament was injected into the lateral ventricle by a micro-dosing pump, wherein a total injection volume was 5 μL, and injection duration was 10 min. Needle was retained for 5 min after completion of injection, and then slowly withdrawn. Afterwards, needle hole was sealed with biomedical glue, and then head skin was adhered. After animals woke up, the animals were returned back to animal house and further fed. PBS control group was administered with the same volume of siRNA-free PBS solution. The day of administration was recorded as 0 day (D0), and the mice were sacrificed at observation point after the administration. Different parts of brain region were respectively taken and stored in the RNAlater.
(§1) RNA extraction: the above tissue samples were taken out from the RNAlater, and smashed for 60 s in Tissuelyser type II full-automatic tissue homogenizer, and total RNAs of various tissue samples were extracted using the full-automatic nucleic acid extraction instrument and the nucleic acid extraction kit from Zhejiang Hanwei Science and Technology Co. Ltd. according to methods described in instructions.
(§2) Reverse transcription reaction: 1 μg of the extracted total RNAs of the tissue samples were taken, and configured into 20 μL of reverse transcription system according to a method described in kit instructions by using a reverse transcription kit (Reverse Transcription System, A3500) from Promega Corporation and selecting Oligo (dT)15 reverse transcription primers, and the reverse transcription reaction was completed. After the reaction was ended, 80 μL of RNase-Free water was added into the reverse transcription system to provide cDNA solution for Real-time PCR detection.
(§3) Real-time PCR detection: 20 μL of Real-time PCR reaction system per PCR detection well was configured according to a method described in kit instructions using SYBR™ Select Master Mix (Catalog number: 4472908) reagent from ABI company. Each detection system contained 5 μL of cDNA template obtained from the above reverse transcription reaction, 10 μL of SYBR™ Select Master Mix, 0.5 μL of 10 μM upstream primers, 0.5 μL of 10 μM downstream primers, and 4 μL of RNase-Free H2O. The configured reaction system was subjected to Real-time PCR amplification on ABI StepOnePlus PCR instrument by a three-step method, wherein an amplification procedure was pre-denaturation at 95° C. for 10 min, then denaturation at 95° C. for 30 s, annealing at 60° C. for 30 s, and extension at 72° C. for 30 s; and processes of denaturation, annealing, and extension were repeated for 40 cycles. Gene expression differences were calculated by the ΔΔCt method after completion of the procedure.
In the real-time fluorescence quantitative PCR method, relative quantitative calculation of remaining expression level and inhibition rate of gene mRNA of interest in various test groups was performed by the ΔΔCt method, and the calculation method is as follows: […]

Data set [2] concerns target gene SOD1. As to the kind of experiment: Test Example 7: inhibitory activity of lipid conjugated siRNA sequences on SOD1 in mouse adipose and muscle tissues (tail vein injection). It counts as in vivo, C57BL/6j mice. Conditions: for inhibitory action on liver and kidney tissues: liver and kidney (non-target tissues), D28 and D49; for D 14 % Mean value of inhibition rate / D 28 % Mean value of inhibition rate / D 49 % Mean value of inhibition rate / Kidney D 14 % Mean value of inhibition rate / Kidney D 28 % Mean value of inhibition rate / Kidney D 49 % Mean value of inhibition rate / Liver D 14 % Mean value of inhibition rate / Liver D 28 % Mean value of inhibition rate / Liver D 49 % Mean value of inhibition rate: tail vein injection 5 mg/kg; for D 14 % Mean value of inhibition rate / inhibitory activity compared with the NM200 conjugated reference sequence RZ899076 / Kidney D 14 % Mean value of inhibition rate / Liver D 14 % Mean value of inhibition rate: D14; for D 28 % Mean value of inhibition rate / Kidney D 28 % Mean value of inhibition rate / Liver D 28 % Mean value of inhibition rate: D28; for inhibitory activity compared with Uhd conjugated reference sequence RZ899093 and NM200 conjugated reference sequence RZ899076: D14, D28 and D49; for Kidney D 14 % Mean value of inhibition rate / Kidney D 28 % Mean value of inhibition rate / Kidney D 49 % Mean value of inhibition rate: mouse kidney; for Liver D 14 % Mean value of inhibition rate / Liver D 28 % Mean value of inhibition rate / Liver D 49 % Mean value of inhibition rate: mouse liver. As to the method: as §1, §2, §3
In the real-time fluorescence quantitative PCR method, relative quantitative calculation of remaining expression level and inhibition rate of gene mRNA of interest in various test groups was performed by the ΔΔCt method, and the calculation method is as follows:
The present test example evaluated, by an evaluation method for inhibitory activity on a target gene in mice, the inhibitory activity of siRNA sequence RZ899090 with the sense strand with the NM073 conjugation at Position 4, siRNA sequence RZ899091 with the sense strand with the NM074 conjugation at Position 4, siRNA sequence RZ899078 with the sense strand with the NM202 conjugation at Position 6 and siRNA reference sequence RZ899093 with the sense strand with the Uhd conjugation at Position 4, and siRNA reference sequence RZ899076 with the sense strand with the NM200 conjugation at Position 4 on the target gene SOD1 of interest in mice. The above conjugation vectors were different in that NM073 was C18 aliphatic chain, NM074 was C20 aliphatic chain, and NM0202 and NM0200 were C22 aliphatic chains.
6-8 Week-old C57BL/6j mice were randomly grouped by body weight, 15 per group, 6 groups in total. Mice in each group were dosed with the above siRNA conjugates by tail vein injection, with an administration dose of 5 mg/kg per mouse, and an administration volume of 150 μL. PBS control group was administered with the same volume of siRNA conjugate-free PBS solution. The day of administration was recorded as D0, and 5 mice in each group were sacrificed on D14, D28 and D49 after administration. Tissues such as paragonadal fat, left hind leg quadriceps muscle, heart, liver, and kidney were respectively taken and stored in the RNAlater. RNA extraction, reverse transcription, and real-time fluorescence quantitative detection were performed on various tissues according to the above method, and gene expression differences were calculated by the above ΔΔCt method.

Where [3] appears, read: mouse adipose tissues (paragonadal fat).
Where [4] appears, read: mouse adipose tissues (paragonadal fat), D49.
Where [5] appears, read: mouse adipose tissues, tail vein 5 mg/kg.
Setting [6] is: mouse heart tissues, tail vein 5 mg/kg.
The mark [7] stands for this setting: mouse skeletal muscle tissues (left hind leg quadriceps muscle).
[8] abbreviates: mouse skeletal muscle tissues (left hind leg quadriceps muscle), D49.

As for “RZ899090: siRNA sequence with the sense strand with the NM073 (C18) conjugation at Position 4; SEQ ID NO: 15 / 23 (sense UUUNAAUCCUCACUCUAAA; antisense UUUAGAGUGAGGAUUAAAAUG; NM073 (C18) conjugate at sense position 4; modified_base 1..2 OTHER; 2'-methoxy and 5'-thiophosphate modified nucleotides; modified_base 3 OTHER; 2'-methoxy modified nucleotide; modified_base 4 OTHER; n is the nucleotide analog NM073 as described in the disclosure.; modified_base 5..6 OTHER; 2'-methoxy modified nucleotides; modified_base 7..10 OTHER; 2'-fluoro modified nucleotides; modified_base 11..19 OTHER; modified_base 1 OTHER; 2'-methoxy and 5'-thiovinylphosphonate modified nucleotide; modified_base 2 OTHER; 2'-fluoro and 5'-thiophosphate modified nucleotide; modified_base 3..5 OTHER; …)”, in data set [1], the “inhibitory activity compared with the vector-free siRNA sequence RX599002” value is recorded as “superior inhibitory activity”; the “Left hemisphere Mean value of inhibition rate” value amounted to 67.87; the “activity compared with Uhd conjugated reference sequence RZ899093 and NM200 (C22) conjugated reference sequence RZ899076” value is on record as “substantially comparable or superior activity”; the “Right hemisphere Mean value of inhibition rate” value worked out at 78.49. Also, in data set [2] (tail vein 5 mg/kg), the “inhibitory action on liver and kidney tissues” value is on record as “no inhibitory action”; the “inhibitory activity in mouse skeletal muscle tissues” value was “certain inhibitory activity”. Further, in data set [2] (setting [3]), the “D 14 % Mean value of inhibition rate” value worked out at 92.09% and the “D 28 % Mean value of inhibition rate” value worked out at 85.11%. For the same substance, the “D 49 % Mean value of inhibition rate” value in data set [2] (setting [4]) was 61.34%. Further, the “inhibitory activity compared with the NM200 conjugated reference sequence RZ899076” value in data set [2] (setting [5]) is reported as “on par”. Besides, the “inhibitory activity compared with Uhd conjugated reference sequence RZ899093 and NM200 conjugated reference sequence RZ899076” value in data set [2] (setting [6]) was “superior inhibitory activity”. Besides, in data set [2] (mouse heart tissues), the “D 14 % Mean value of inhibition rate” value is listed as 79.58% and the “D 28 % Mean value of inhibition rate” value amounted to 82.12%. The “D 49 % Mean value of inhibition rate” value in data set [2] (mouse heart tissues, D49) amounted to 65.43%. Also, in data set [2], the “Kidney D 14 % Mean value of inhibition rate” value turned out to be 31.38%, the “Kidney D 28 % Mean value of inhibition rate” value is 15.90%, the “Liver D 14 % Mean value of inhibition rate” value was found to be 36.99% and the “Liver D 28 % Mean value of inhibition rate” value stood at 7.32%. In data set [2] (D49), the “Kidney D 49 % Mean value of inhibition rate” value was determined as 7.12% and the “Liver D 49 % Mean value of inhibition rate” value is −12.46%. Moreover, in data set [2] (setting [7]), the “D 14 % Mean value of inhibition rate” value is listed as 57.16% and the “D 28 % Mean value of inhibition rate” value amounted to 51.23%. Also, the “D 49 % Mean value of inhibition rate” value in data set [2] (setting [8]) was 42.93%.
As to “RZ899091: siRNA sequence with the sense strand with the NM074 (C20) conjugation at Position 4; SEQ ID NO: 16 / 23 (sense UUUNAAUCCUCACUCUAAA; antisense UUUAGAGUGAGGAUUAAAAUG; NM074 (C20) conjugate at sense position 4; modified_base 1..2 OTHER; 2'-methoxy and 5'-thiophosphate modified nucleotides; modified_base 3 OTHER; 2'-methoxy modified nucleotide; modified_base 4 OTHER; n is the synthetic nucleotide analog NM074 as described in the disclosure.; modified_base 5..6 OTHER; 2'-methoxy modified nucleotides; modified_base 7..10 OTHER; 2'-fluoro modified nucleotides; modified_base 11..19 OTHER; 2'-methoxy modified ; modified_base 1 OTHER; 2'-methoxy and 5'-thiovinylphosphonate modified nucleotide; modified_base 2 OTHER; 2'-fluoro and 5'-thiophosphate modified …)”, in data set [1], the “inhibitory activity compared with the vector-free siRNA sequence RX599002” value is on record as “superior inhibitory activity”; the “Left hemisphere Mean value of inhibition rate” value was determined as 70.41; the “activity compared with Uhd conjugated reference sequence RZ899093 and NM200 (C22) conjugated reference sequence RZ899076” value was “substantially comparable or superior activity”; the “Right hemisphere Mean value of inhibition rate” value is on record as 82.32. In data set [2] (tail vein 5 mg/kg), the “inhibitory action on liver and kidney tissues” value is “no inhibitory action”; the “inhibitory activity in mouse skeletal muscle tissues” value is “certain inhibitory activity”. Further, in data set [2] (setting [3]), the “D 14 % Mean value of inhibition rate” value worked out at 86.81% and the “D 28 % Mean value of inhibition rate” value was found to be 86.36%. Further, the “D 49 % Mean value of inhibition rate” value in data set [2] (setting [4]) turned out to be 81.73%. In addition, the “inhibitory activity compared with the NM200 conjugated reference sequence RZ899076” value in data set [2] (setting [5]) is recorded as “on par”. The “gene inhibitory effect compared with RZ899076” value in data set [2] (mouse adipose tissues, tail vein 5 mg/kg, D49) was “superior gene inhibitory effect”. Besides, in data set [2] (setting [6]), the “inhibitory activity compared with Uhd conjugated reference sequence RZ899093 and NM200 conjugated reference sequence RZ899076” value is “superior inhibitory activity”. Also, in data set [2] (mouse heart tissues), the “D 14 % Mean value of inhibition rate” value is 87.44% and the “D 28 % Mean value of inhibition rate” value was 82.78%. Besides, the “D 49 % Mean value of inhibition rate” value in data set [2] (mouse heart tissues, D49) was 81.89%. Besides, in data set [2], the “Kidney D 14 % Mean value of inhibition rate” value was found to be 31.71%, the “Kidney D 28 % Mean value of inhibition rate” value was 3.50%, the “Liver D 14 % Mean value of inhibition rate” value came out at 49.04% and the “Liver D 28 % Mean value of inhibition rate” value worked out at 13.03%. Besides, in data set [2] (D49), the “Kidney D 49 % Mean value of inhibition rate” value is reported as 9.97% and the “Liver D 49 % Mean value of inhibition rate” value amounted to 7.59%. In addition, in data set [2] (setting [7]), the “D 14 % Mean value of inhibition rate” value came to 69.80% and the “D 28 % Mean value of inhibition rate” value is reported as 72.24%. The “D 49 % Mean value of inhibition rate” value in data set [2] (setting [8]) came to 41.89%.

The record behind these values is patent US20260132165A1, “MODIFIED NUCLEOSIDE ANALOGUE AND USE THEREOF, AND NUCLEOSIDE ANALOGUE-CONTAINING DOUBLE-STRANDED OLIGONUCLEOTIDE AND USE THEREOF” (RIGERNA THERAPEUTICS (BEIJING) CO., LTD., priority 2023, published 2026).
